Active and inactive are the calls of the source.
Key:
[1] = inhibitors of intracellular T. cruzi replication, confirmation, NIH3T3 host cells, beta-gal luminescence (AID 2044); type: functional, cell-based;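 also: intracellular parasites grown in NIH/3T3 mouse fibroblasts as host cells; luminescent beta-galactosidase reporter signal from transgenic T. cruzi replicating inside host cells; inhibitors lower the luminescence signal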
[2] = cytotoxicity toward NIH3T3 fibroblasts, dose response, counter-screen, cell-based, ATP luminescence, mouse fibroblasts (AID 2010); type: functional;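 also: cells exposed to compound for about 90 hours before reading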
[3] = target: T1, Ubiquitin-conjugating enzyme E2 N (Homo sapiens, UniProt P61088); type: functional;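 also: Dose-response confirmation in a TR-FRET assay detecting UBC13-driven polyubiquitin chain formation, inhibition measured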
T1 sequence (P61088 whole entry): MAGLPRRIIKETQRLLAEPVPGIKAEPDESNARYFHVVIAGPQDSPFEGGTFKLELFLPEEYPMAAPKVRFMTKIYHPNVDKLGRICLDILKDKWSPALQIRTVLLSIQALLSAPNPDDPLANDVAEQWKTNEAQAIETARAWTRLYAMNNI

Insulin-degrading enzyme [4] = target: T2, Insulin-degrading enzyme (Homo sapiens, UniProt P14735); experiment: activators of recombinant IDE enzyme, dose response, counter-screen for IDE activator project, biochemical, fluorescence polarization (AID 588681)
T2 sequence (P14735 whole entry): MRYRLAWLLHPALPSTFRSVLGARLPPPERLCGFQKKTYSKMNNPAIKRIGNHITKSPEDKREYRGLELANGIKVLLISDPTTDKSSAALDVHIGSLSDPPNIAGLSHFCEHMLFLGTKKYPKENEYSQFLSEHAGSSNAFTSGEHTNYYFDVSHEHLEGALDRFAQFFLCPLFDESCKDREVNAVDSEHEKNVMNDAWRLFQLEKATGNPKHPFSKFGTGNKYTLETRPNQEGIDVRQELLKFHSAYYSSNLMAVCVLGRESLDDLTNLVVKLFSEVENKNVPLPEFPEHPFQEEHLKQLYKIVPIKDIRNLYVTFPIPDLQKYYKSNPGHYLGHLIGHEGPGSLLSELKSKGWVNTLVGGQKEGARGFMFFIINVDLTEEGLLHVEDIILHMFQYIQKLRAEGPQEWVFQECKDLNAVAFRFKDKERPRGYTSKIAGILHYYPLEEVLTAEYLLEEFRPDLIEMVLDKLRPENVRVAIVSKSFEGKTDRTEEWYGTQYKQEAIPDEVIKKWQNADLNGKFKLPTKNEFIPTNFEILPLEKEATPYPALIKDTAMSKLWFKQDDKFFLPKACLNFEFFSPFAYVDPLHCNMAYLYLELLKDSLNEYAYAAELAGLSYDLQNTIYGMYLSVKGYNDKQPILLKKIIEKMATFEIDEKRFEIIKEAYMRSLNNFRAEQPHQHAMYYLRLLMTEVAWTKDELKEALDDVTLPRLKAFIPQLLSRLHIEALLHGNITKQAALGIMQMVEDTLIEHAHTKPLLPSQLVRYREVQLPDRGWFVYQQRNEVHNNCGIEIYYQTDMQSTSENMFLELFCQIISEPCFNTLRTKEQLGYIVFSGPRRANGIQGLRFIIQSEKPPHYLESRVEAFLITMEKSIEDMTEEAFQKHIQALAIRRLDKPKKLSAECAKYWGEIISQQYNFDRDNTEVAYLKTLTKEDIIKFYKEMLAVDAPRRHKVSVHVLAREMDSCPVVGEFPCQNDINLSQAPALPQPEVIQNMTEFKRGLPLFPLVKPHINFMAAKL

Insulin-degrading enzyme [5] = target: T2, Insulin-degrading enzyme; experiment: activators of endogenous IDE in HEK cells, dose response, cell-based, fluorescence polarization (AID 588439); type: functional
HEK293 [6] = experiment: HEK cell cytotoxicity by LDH release, dose response, cytotoxicity control for IDE activator project, fluorescence, HEK cells (AID 588440); type: functional, cell-based; conditions: Homo sapiens;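 also: cytotoxicity by LDH release measuring loss of membrane integrity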
HEK293 [7] = experiment: optical interference in Abeta FP readout, dose response, artefact control for IDE activator project, biochemical, fluorescence polarization (AID 588442); type: functional, cell-based; conditions: Homo sapiens
[8] = NIH-3T3 fibroblast cytotoxicity, dose response, cytotoxicity control, cell-based, fluorescence, Alamar Blue, secondary assay (AID 2327); type: functional;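 also: NIH-3T3 mouse fibroblasts cultured with fluconazole at 8 µg/mL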
[9] = C. albicans growth with fluconazole, confirmation, fluorescence, retest (AID 2467); type: functional, cell-based
[10] = target: T3, Serine/threonine-protein phosphatase (Candida dubliniensis (strain CD36 / CBS 7987 / NCPF 3949 / NRRLY-17841) (Yeast), UniProt B9W6M3); experiment: calcineurin pathway inhibitors in yeast reporter, dose response, S. cerevisiae, CDRE-lacZ, luminescence, secondary (AID 2388); type: functional, cell-based;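 also: yeast reporter cells carrying a calcineurin-responsive lacZ construct stimulated with calcium chloride; luminescent beta-galactosidase reporter signal in whole cells rather than isolated phosphatase activity; potency for inhibition where a drop in reporter signal means calcineurin blockade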
T3 sequence (B9W6M3 whole entry): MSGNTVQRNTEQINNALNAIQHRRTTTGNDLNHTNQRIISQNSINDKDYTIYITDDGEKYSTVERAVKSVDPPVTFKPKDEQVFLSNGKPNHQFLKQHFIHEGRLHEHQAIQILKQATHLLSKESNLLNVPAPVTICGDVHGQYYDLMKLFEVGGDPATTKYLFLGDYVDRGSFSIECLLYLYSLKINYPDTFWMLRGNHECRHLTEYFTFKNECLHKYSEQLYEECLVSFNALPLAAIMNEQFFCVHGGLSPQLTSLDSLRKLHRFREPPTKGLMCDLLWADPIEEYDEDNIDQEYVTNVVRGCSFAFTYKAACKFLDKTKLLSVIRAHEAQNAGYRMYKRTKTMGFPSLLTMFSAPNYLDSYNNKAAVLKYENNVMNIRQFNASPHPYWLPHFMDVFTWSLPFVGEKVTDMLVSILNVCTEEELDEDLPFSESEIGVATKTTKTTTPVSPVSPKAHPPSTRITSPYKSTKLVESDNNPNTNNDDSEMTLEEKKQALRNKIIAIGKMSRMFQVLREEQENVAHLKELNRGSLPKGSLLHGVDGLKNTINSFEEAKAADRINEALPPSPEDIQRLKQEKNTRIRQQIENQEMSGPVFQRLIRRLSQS

[11] = target: ATP-dependent molecular chaperone HSP82 (Candida albicans (strain WO-1) (Yeast), UniProt C4YTQ8); experiment: loss of DOC-induced GRE-beta-galactosidase reporter signal, dose response, Hsp90 inhibitor project, S. cerevisiae, luminescence (AID 2400); type: functional, cell-based;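 also: beta-galactosidase luminescence from glucocorticoid response element reporter as proxy for Hsp90 function; inhibitor potency where signal loss means Hsp90 inhibition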
Sequence of ATP-dependent molecular chaperone HSP82 (C4YTQ8 whole entry): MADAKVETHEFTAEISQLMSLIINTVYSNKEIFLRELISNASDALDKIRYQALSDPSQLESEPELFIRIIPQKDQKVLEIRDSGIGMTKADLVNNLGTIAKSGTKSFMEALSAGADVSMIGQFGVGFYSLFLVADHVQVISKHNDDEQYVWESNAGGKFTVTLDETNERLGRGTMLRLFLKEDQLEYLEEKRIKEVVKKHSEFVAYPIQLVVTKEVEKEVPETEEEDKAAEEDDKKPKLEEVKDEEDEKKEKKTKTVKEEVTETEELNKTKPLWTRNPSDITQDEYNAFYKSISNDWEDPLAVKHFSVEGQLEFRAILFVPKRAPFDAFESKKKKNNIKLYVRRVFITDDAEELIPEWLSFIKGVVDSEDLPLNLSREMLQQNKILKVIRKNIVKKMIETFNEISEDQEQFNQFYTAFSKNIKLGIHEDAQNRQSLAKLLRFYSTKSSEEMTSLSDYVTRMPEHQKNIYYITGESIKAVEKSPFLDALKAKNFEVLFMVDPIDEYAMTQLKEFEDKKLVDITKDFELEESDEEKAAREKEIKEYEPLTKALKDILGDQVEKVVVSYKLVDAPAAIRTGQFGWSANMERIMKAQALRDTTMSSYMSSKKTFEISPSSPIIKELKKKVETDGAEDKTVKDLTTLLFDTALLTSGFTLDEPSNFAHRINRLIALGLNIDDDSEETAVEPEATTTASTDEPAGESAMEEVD

[12] = Shn3 3'UTR reporter inhibitors, dose response, cell-based, Clone20 osteoblasts, firefly luciferase, cherry-picked (AID 624132); type: functional;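 also: firefly luciferase luminescence from reporter carrying the Shn3 3'UTR in osteoblasts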
[13] = HepG2 cell cytotoxicity, dose response, cytotoxicity control for Shn3 inhibitor project, CellTiter-Glo, cherry-picked (AID 624134); type: functional, cell-based
[14] = control 3'UTR Renilla luciferase suppression, dose response, counter-screen for Shn3 inhibitor project, cell-based, Clone20-Shn3RL, cherry-picked (AID 624133); type: functional
cells [15] = type: functional, cell-based
cells [16] = type: functional, cell-based; remark: listed apart in the source
[17] = Luminescence Cell-Based Dose Retest to Confirm Inhibitors of Cancer Stem Cells. [Related pubchem assays (depositor defined):AID2717, AID2721]; type: functional; conditions: Homo sapiens
[18] = target: T4, Replicative DNA helicase DnaB (Mycobacterium tuberculosis, UniProt P9WMR3); experiment: DnaB intein splicing inhibitors, dose response, biochemical, cell-free fluorescence (AID 449749); type: functional
T4 sequence (P9WMR3 whole entry): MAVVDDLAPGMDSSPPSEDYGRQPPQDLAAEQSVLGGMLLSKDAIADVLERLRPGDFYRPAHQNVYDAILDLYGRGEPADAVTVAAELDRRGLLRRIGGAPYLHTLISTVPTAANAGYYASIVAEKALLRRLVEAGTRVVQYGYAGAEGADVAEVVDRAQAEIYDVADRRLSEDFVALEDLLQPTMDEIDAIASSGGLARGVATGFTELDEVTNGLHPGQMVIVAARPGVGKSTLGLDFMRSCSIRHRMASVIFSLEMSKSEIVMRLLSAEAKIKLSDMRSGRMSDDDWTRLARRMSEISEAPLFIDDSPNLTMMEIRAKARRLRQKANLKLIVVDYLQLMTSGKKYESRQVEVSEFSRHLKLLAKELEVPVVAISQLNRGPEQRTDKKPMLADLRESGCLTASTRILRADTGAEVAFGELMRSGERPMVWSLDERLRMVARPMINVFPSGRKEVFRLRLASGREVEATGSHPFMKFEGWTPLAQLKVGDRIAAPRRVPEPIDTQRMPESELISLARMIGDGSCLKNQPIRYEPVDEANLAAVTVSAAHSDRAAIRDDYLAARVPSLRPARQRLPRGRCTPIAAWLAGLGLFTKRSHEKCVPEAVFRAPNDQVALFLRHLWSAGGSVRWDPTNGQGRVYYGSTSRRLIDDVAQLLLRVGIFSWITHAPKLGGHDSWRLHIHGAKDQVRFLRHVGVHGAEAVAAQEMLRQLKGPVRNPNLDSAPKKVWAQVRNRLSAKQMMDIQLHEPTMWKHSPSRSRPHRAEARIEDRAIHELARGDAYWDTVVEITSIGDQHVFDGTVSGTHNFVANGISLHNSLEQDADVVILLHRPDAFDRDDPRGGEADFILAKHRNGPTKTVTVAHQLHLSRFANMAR

Protein RecA = target: T5, Protein RecA (Mycobacterium tuberculosis, UniProt P9WHJ3); experiment: Fluorescence Cell-Free Homogeneous Dose Retest to Identify Inhibitors of RecA-Intein Splicing Activity. [Related pubchem assays (depositor defined):AID2097, AID2223, AID489010, AID492950]; type: functional
T5 sequence (P9WHJ3 whole entry): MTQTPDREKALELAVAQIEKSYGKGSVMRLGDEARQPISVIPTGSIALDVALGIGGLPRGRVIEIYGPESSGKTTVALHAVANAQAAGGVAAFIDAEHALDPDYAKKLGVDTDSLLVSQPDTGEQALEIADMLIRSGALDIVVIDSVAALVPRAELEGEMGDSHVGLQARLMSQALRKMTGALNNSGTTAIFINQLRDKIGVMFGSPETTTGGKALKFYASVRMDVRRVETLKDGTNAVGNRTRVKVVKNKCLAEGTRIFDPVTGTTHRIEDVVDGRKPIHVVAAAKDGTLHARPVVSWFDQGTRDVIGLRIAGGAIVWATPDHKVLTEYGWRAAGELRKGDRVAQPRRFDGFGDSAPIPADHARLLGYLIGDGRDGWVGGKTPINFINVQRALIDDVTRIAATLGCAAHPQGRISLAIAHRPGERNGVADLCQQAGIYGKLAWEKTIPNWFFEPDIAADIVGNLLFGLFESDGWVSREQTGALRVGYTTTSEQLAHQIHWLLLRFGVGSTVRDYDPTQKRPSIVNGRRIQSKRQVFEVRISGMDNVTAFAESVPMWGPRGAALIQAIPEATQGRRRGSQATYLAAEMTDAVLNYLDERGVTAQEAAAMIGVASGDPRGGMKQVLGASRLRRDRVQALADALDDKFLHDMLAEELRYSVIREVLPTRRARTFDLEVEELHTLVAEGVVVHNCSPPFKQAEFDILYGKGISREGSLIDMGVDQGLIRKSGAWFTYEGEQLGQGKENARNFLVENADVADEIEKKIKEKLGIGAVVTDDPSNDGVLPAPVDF

Vero = experiment: cells; type: functional; conditions: Chlorocebus sabaeus
Melanocortin receptor 4 = Melanocortin receptor 4 (Homo sapiens, UniProt P32245); type: functional, cell-based;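 also: Cell-based assay with luminescence read-out, confirmatory dose-response testing for agonist activity of biased ligands at MC4R; human U2OS cells with tagged receptor and beta-arrestin; potency of agonists that increase receptor coupling to beta-arrestin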
Sequence of Melanocortin receptor 4 (P32245 whole entry): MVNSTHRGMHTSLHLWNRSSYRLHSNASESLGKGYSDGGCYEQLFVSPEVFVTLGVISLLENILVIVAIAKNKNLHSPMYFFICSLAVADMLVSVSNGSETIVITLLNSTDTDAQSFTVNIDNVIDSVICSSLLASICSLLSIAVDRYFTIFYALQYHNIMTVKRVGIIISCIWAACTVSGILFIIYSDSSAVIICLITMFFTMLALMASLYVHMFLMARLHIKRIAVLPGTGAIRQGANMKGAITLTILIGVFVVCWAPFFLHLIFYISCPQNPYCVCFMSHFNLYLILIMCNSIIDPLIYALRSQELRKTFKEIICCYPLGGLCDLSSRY

SMILES: CCN1CCN(CCNC(=O)c2ccc(/C=C3/Sc4ccccc4N(Cc4cccc(C)c4)C3=O)cc2)CC1
- EC50 [1]: 1.29 µM (active)
- EC50 [2]: 8.45 µM (active)
- IC50 [3]: > 20 µM (inactive)
- EC50 (Insulin-degrading enzyme [4]): > 54.7 µM (inactive)
- EC50 (Insulin-degrading enzyme [5]): 23.2 µM (inactive)
- IC50 (HEK293 [6]): 20.2 µM (inactive)
- EC50 (HEK293 [7]): > 54.7 µM (inactive)

SMILES: CCNc1nc(NC(C)C)nc(NC(C)(C)C)n1
- EC50 [8]: > 150 µM (inconclusive)
- EC50 [9]: 0.11 µM (active)
- EC50 [10]: > 180 µM (inactive)
- EC50 [11]: > 160 µM (inactive)

SMILES: Cc1ccc(C(=O)Nc2cccc(-c3cn4ccccc4n3)c2)cc1
- EC50 [8]: > 150 µM (inactive)
- EC50 [9]: 0.628 µM (active)
- EC50 [10]: > 180 µM (inactive)
- EC50 [11]: > 160 µM (inactive)

SMILES: CC1CN(S(=O)(=O)c2ccc(C(=O)Nc3nncs3)cc2)CC(C)O1 (stereo not drawn)
- EC50 (Insulin-degrading enzyme [4]): > 54.7 µM (inactive)
- EC50 (Insulin-degrading enzyme [5]): > 54.7 µM (inactive)
- IC50 (HEK293 [6]): > 89.2 µM (inactive)
- EC50 (HEK293 [7]): > 54.7 µM (inactive)

SMILES: OC[C@@H]1CN(Cc2ccncc2)C[C@H](n2cnc3c(N4CCN(c5ccccc5)CC4)ncnc32)O1
- AC50 [12]: 2.38 µM (active)
- AC50 [13]: 3.81 µM (active)
- AC50 [14]: 5.72 µM (active)

SMILES: Cc1ccc(-c2nnc(Sc3nc4ccccc4o3)c3ccccc23)cc1
- EC50 (cells [15]): > 350 µM (not active)
- EC50 (cells [16]): > 350 µM (not active)
- AC50 [17]: 6.09 µM (active)
- AC50 [18]: 2.39 µM (active)
- EC50 (Protein RecA): 0.396 µM (active)
- CC50 (Vero): > 25 µM (active)

SMILES: COc1ccc(/C=C2\Oc3cc(OCC(=O)N4CCC(C(=O)O)CC4)ccc3C2=O)c(OC)c1OC
- EC50 (Insulin-degrading enzyme [4]): 33 µM (inactive)
- EC50 (Insulin-degrading enzyme [5]): 22 µM (inactive)
- IC50 (HEK293 [6]): > 89.2 µM (inactive)
- EC50 (HEK293 [7]): 24 µM (inactive)

SMILES: O=C(CCN1C(=O)/C(=C/C=C/c2ccccc2)SC1=S)Nc1cccnc1
- EC50 (Melanocortin receptor 4): > 89.2 µM (inactive)

SMILES: CCOC(=O)C(/C=N/c1ccc2c(c1)nnn2-c1ccc(Cl)cc1)=C(\O)OCC
- EC50 (Melanocortin receptor 4): > 89.2 µM (inactive)

SMILES: O=C(NS(=O)(=O)Nc1ccccc1)C1=C(N2CCCC2)COC1=O
- EC50 (Insulin-degrading enzyme [4]): > 54.7 µM (inactive)
- EC50 (Insulin-degrading enzyme [5]): > 54.7 µM (inactive)
- IC50 (HEK293 [6]): > 89.2 µM (inactive)
- EC50 (HEK293 [7]): > 55.9 µM (inactive)

Reference: ChEMBL document CHEMBL1201862, “PubChem BioAssay data set” (2004)
